Laboratory results: US6660774B2, “Use of (+)-tramadol, O-demethyltramadol or (+)-O-demethyl-tramadol, O-desmethyl-N-mono-desmethyl-tramadol or (+)- O-desmethyl-N-mono-desmethyltramadol” (Gruenethal GmbH, priority 1999, dated 2003)

Key:
[1] = analgesic effects less pronounced on intravenous than on intracerebroventricular administration; cited from earlier work
[2] = test system: virgin, female Sprague-Dawley rats (bladder function); experiment: Cystometric testing on conscious, virgin rats; format: in vivo, rat
[3] = 1.0 mg/kg i.v., Diff.: change relative to the initial value
[4] = 1.0 mg/kg i.v., h: after administration, at maximum action
[5] = 1.0 mg/kg i.v., v: before administration (initial value)
[6] = 5.0 mg/kg i.v., Diff.: change relative to the initial value
[7] = 5.0 mg/kg i.v., h: after administration, at maximum action
[8] = 5.0 mg/kg i.v., v: before administration (initial value)
[9] = 10.0 mg/kg i.v., Diff.: change relative to the initial value
[10] = 10.0 mg/kg i.v., h: after administration, at maximum action
[11] = 10.0 mg/kg i.v., v: before administration (initial value)

In the case of CNCC1CCCCC1(O)c1cccc(O)c1 (stereo not drawn) [M5, O-desmethyl-N-mono-desmethyltramadol], the “penetration of the blood-brain barrier (in words)” value [1] is listed as “only a limited extent”.

For COc1cccc([C@@]2(O)CCCC[C@@H]2CN(C)C)c1 (racemic) [Tramadol, (1RS,2RS)-2-dimethylaminomethyl-1-(3-methoxyphenyl)cyclohexanol], the Basal pressure [2, 3] was “Diff.: +26%”, the Bladder capacity [2, 3] was “Diff.: −2%” and the Micturition pressure [2, 3] was “Diff.: −10%”. For the same molecule, the Micturition volume [2, 3] was “Diff.: +27%”, the Residual volume [2, 3] was “Diff.: −89%” and the Threshold pressure [2, 3] was “Diff.: +50%”. The Basal pressure [2, 4] was “h: 11.34 ± 1.54 cm H2O”, the Bladder capacity [2, 4] was “h: 0.82 ± 0.09 ml” and the Micturition pressure [2, 4] was “h: 85 ± 6 cm H2O”. The Micturition volume [2, 4] was “h: 0.95 ± 0.08 ml”, the Residual volume [2, 4] was “h: 0.01 ± 0.005 ml” and the Threshold pressure [2, 4] was “h: 21.03 ± 3.10 cm H2O”. The Basal pressure [2, 5] was “v: 9.02 ± 1.12 cm H2O”, the Bladder capacity [2, 5] was “v: 0.84 ± 0.11 ml” and the Micturition pressure [2, 5] was “v: 94 ± 7 cm H2O”. The Micturition volume [2, 5] was “v: 0.75 ± 0.09 ml”, the Residual volume [2, 5] was “v: 0.09 ± 0.02 ml” and the Threshold pressure [2, 5] was “v: 14.0 ± 2.04 cm H2O”. The “action on threshold pressure compared with 10 mg/kg of racemic tramadol” value ([2]; 5 mg/kg) was “doubled”, the Basal pressure [2, 6] was “Diff.: +1%” and the Bladder capacity [2, 6] was “Diff.: +6%”. For the same molecule, the Inter-contraction interval [2, 6] was “Diff.: −11%”, the Micturition pressure [2, 6] was “Diff.: −27%” and the Micturition volume [2, 6] was “Diff.: +42%”. For the same molecule, the Residual volume [2, 6] was “Diff.: −73%”, the Threshold pressure [2, 6] was “Diff.: +37%” and the Basal pressure [2, 7] was “h: 9.30 ± 2.10 cm H2O”. The Bladder capacity [2, 7] was “h: 0.92 ± 0.08 ml”, the Micturition pressure [2, 7] was “h: 75 ± 10 cm H2O” and the Micturition volume [2, 7] was “h: 1.08 ± 0.09 ml”. For the same molecule, the Residual volume [2, 7] was “h: 0.03 ± 0.01 ml”, the Threshold pressure [2, 7] was “h: 17.05 ± 2.33 cm H2O” and the Basal pressure [2, 8] was “v: 9.21 ± 1.35 cm H2O”. For the same molecule, the Bladder capacity [2, 8] was “v: 0.87 ± 0.07 ml”, the Micturition pressure [2, 8] was “v: 103 ± 10 cm H2O” and the Micturition volume [2, 8] was “v: 0.76 ± 0.06 ml”. The Residual volume [2, 8] was “v: 0.11 ± 0.02 ml”, the Threshold pressure [2, 8] was “v: 12.45 ± 1.411 cm H2O” and the “threshold pressure (in words)” value ([2]; 10 mg/kg i.v.) was “distinct rise”. For the same molecule, the Basal pressure [2, 9] was “Diff.: +40%”, the Bladder capacity [2, 9] was “Diff.: −18%” and the Inter-contraction interval [2, 9] was “Diff.: −40%”. The Micturition pressure [2, 9] was “Diff.: −11%”, the Micturition volume [2, 9] was “Diff.: +33%” and the Residual volume [2, 9] was “Diff.: −50%”. The Threshold pressure [2, 9] was “Diff.: +70%”, the Basal pressure [2, 10] was “h: 14.31 ± 1.89 cm H2O” and the Bladder capacity [2, 10] was “h: 0.78 ± 0.08 ml”. The Micturition pressure [2, 10] was “h: 66 ± 5 cm H2O”, the Micturition volume [2, 10] was “h: 1.13 ± 0.08 ml” and the Residual volume [2, 10] was “h: 0.05 ± 0.005 ml”. For the same molecule, the Threshold pressure [2, 10] was “h: 25.50 ± 2.40 cm H2O”, the Basal pressure [2, 11] was “v: 10.21 ± 1.03 cm H2O” and the Bladder capacity [2, 11] was “v: 0.95 ± 0.06 ml”. The Micturition pressure [2, 11] was “v: 74 ± 5 cm H2O”, the Micturition volume [2, 11] was “v: 0.85 ± 0.05 ml” and the Residual volume [2, 11] was “v: 0.10 ± 0.02 ml”. For the same molecule, the Threshold pressure [2, 11] was “v: 15.01 ± 1.32 cm H2O” and the “ICI (in words)” value ([2]; most effective dose (10 mg/kg)) was “distinct reduction”.
